Values joined by “and” are separate entries in the source; they are usually repeats but may differ in a detail not shown here. Equal entries are not always repeated.
Legend:
[1] = Evaluation of excretion and half-life for Testosterone following intramusculary administration of testosterone doses.; format: ADME, organism-based; conditions: human, in vivo, im; dosed compound id 32, dosed compound name TESTOSTERONE, gender male, tissue Plasma
[2] = tested on: Homo sapiens; assay: Mean steady-state pharmacokinetic parammeters for Testosterone evaluated on day 30 following multiple topical administration of Testosterone gel to adult male subjetcs with testosterone levels <= 300ng/dL.; format: ADME, organism-based; design: dose 100 mg, dose 50 mg, route topical; conditions: in vivo, topical_or_ocular, dosed compound id 32, dosed compound name TESTOSTERONE, gender male, regimen Once daily, tissue Serum; for Cavg: route topical

## C[C@]12CC[C@H]3[C@@H](CCC4=CC(=O)CC[C@@]43C)[C@@H]1CC[C@@H]2O [TESTOSTERONE]
[1]
  half-life: 10 to 100 min
[2]; dose 50 mg
  Cavg: 365 ng/dL
[2]; dose 100 mg
  Cavg: 612 ng/dL
[2]
  Cmax: 538 ng/dL and 897 ng/dL

Reference: ChEMBL document CHEMBL3832021, “DailyMed|setid=e42c6a90-37f6-44f5-8112-126c2c4a4b2c | TESTIM- testosterone gel | A-S Medication Solutions LLC”
